Assay results reported in PubChem BioAssay AID651551 (Sanford-Burnham Center for Chemical Genomics, 2012).
Calls of active or inactive are those of the source.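 The calls were made as follows: active = compounds blocking the Peg3 reporter with IC50 up to 10 µM at 6 or 24 hours, yet inert on a control reporter; inactive = the rest.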

Assays:
[1] = GAPDH versus PEG-3 reporter suppression – cell-based, luminescence, counter-screen for PEG-3 promoter inhibitor project, SAR follow-up (AID 651551); conditions: HeLa PEG-Prom / GAPDH luciferase reporter, 6 or 24 h, GAPDH, mean of runs
PEG-3 = PEG-3 (UniProt Q6IN02); test: as above; conditions: HeLa PEG-Prom / GAPDH luciferase reporter, 6 or 24 h, mean of runs

IC50 ([1]; 6 h)	IC50 ([1]; 24 h)	IC50 (PEG-3; 6 h)	IC50 (PEG-3; 24 h)	SMILES
> 99 µM (inactive)	inactive	> 99 µM (inactive)	> 99 µM (inactive)	Cc1nc(NC(=O)c2ccccc2)sc1-c1csc(Nc2cccc(Cl)c2C)n1
inactive	3.96 µM	inactive	6.13 µM	CCn1nc(C(=O)Nc2nc(-c3ccccn3)cs2)c2ccccc2c1=O
> 99 µM (inactive)	> 99 µM (inactive)	inactive	> 99 µM (inactive)	Cc1cc(NC(=O)c2ccccc2)n(-c2nc3ccccc3n2C)n1
inactive	8.73 µM	inactive	inactive	Cc1cc(NC(=O)c2ccccc2C(F)(F)F)n(-c2nc3ccccc3[nH]2)n1
> 99 µM (inactive)	4.68 µM	> 99 µM (inactive)	6.52 µM	COCCCNC(=O)c1ccc(Cn2c(=O)c3ccccc3n(Cc3ccccc3C#N)c2=O)cc1
inactive	8.39 µM	> 99 µM (inactive)	> 99 µM (inactive)	O=C(Nc1nccs1)c1nn(-c2ccccc2)c(=O)c2ccccc12
> 99 µM (inactive)	inactive	inactive	> 99 µM (inactive)	Cc1cc(NC(=O)c2cccc(C)c2C)n(-c2nc3ccccc3[nH]2)n1
inactive	inactive	> 99 µM (inactive)	> 99 µM (inactive)	COc1ccc(-n2nc(C(=O)NCC(=O)Nc3ccc(OC)c(OC)c3)c3ccccc3c2=O)cc1
> 99 µM (inactive)	inactive	inactive	inactive	Cc1cc(NC(=O)c2ccccc2C)n(-c2nc3ccccc3[nH]2)n1
> 99 µM (inactive)	7.52 µM	> 99 µM (inactive)	> 99 µM (inactive)	Cc1nc(NC(=O)c2ccccc2)sc1-c1csc(Nc2ccccc2Cl)n1
> 99 µM (inactive)	9.9 µM	inactive	inactive	COc1ccc(Cl)cc1Nc1nc(-c2sc(NC(=O)c3ccccc3)nc2C)cs1
inactive	5.32 µM	inactive	inactive	CCCn1nc(C(=O)Nc2nc(-c3ccncc3)cs2)c2ccccc2c1=O
> 99 µM (inactive)	> 99 µM (inactive)	> 99 µM (inactive)	> 99 µM (inactive)	O=C(Nc1nc(-c2ccccc2)cs1)c1nn(-c2ccccc2)c(=O)c2ccccc12
inactive	inactive	> 99 µM (inactive)	inactive	Cc1nc(NC(=O)c2ccccc2)sc1-c1csc(Nc2ccccc2)n1

Second part, the compound before the results:

SMILES	IC50 ([1]; 6 h)	IC50 ([1]; 24 h)	IC50 (PEG-3; 6 h)	IC50 (PEG-3; 24 h)
COc1ccc(-n2nc(C(=O)NCC(=O)Nc3cc(OC)c(OC)c(OC)c3)c3ccccc3c2=O)cc1OC	> 99 µM (inactive)	6.31 µM	> 99 µM (inactive)	> 99 µM (inactive)
CCCn1nc(C(=O)Nc2nc(-c3ccccn3)cs2)c2ccccc2c1=O	inactive	7.06 µM	8.66 µM	inactive
Cc1cc(NC(=O)c2ccccc2)n(-c2nc3ccccc3[nH]2)n1	> 99 µM (inactive)	> 99 µM (inactive)	inactive	inactive
Cc1ccc(Cl)cc1Nc1nc(-c2sc(NC(=O)c3ccco3)nc2C)cs1	inactive	7.63 µM	inactive	inactive
CCn1cc(C(=O)NCc2ccco2)c(=O)c2cc(S(=O)(=O)N3CCCC3)ccc21	> 99 µM (inactive)	inactive	> 99 µM (inactive)	> 99 µM (inactive)
O=C(Nc1nc2ccccc2s1)c1nn(-c2ccccc2)c(=O)c2ccccc12	> 99 µM (inactive)	inactive	> 99 µM (inactive)	> 99 µM (inactive)
COc1ccccc1Nc1nc(-c2sc(NC(=O)c3ccco3)nc2C)cs1	inactive	4.17 µM	> 99 µM (inactive)	> 99 µM (inactive)
COc1ccc(-n2nc(C(=O)NCC(=O)Nc3cccc(OC)c3)c3ccccc3c2=O)cc1	> 99 µM (inactive)	inactive	> 99 µM (inactive)	> 99 µM (inactive)
CCCn1nc(C(=O)Nc2nc3ccccc3s2)c2ccccc2c1=O	> 99 µM (inactive)	inactive	> 99 µM (inactive)	> 99 µM (inactive)
